Assay results: US20220054494A1, “METHODS FOR TREATING BLADDER AND URETHRA DYSFUNCTION AND DISEASE” (University of Pittsburgh - Of the Commonwealth System of …, priority 2019, published 2022)
Entries after “also recorded” stand apart in the source; their conditions may differ.

How the values were obtained:
[1] = Jackson et al., J Pharmacol Exp Ther 2016; cited from earlier work
hydroxyproline = assay: Hydroxyproline in detrusor smooth muscle (indicator of fibrosis); type: in vivo, rat; details: aged rats; oral 8-AG 5 mg/kg/day, 6 weeks
PNPase = PNPase (Homo sapiens, UniProt P00491); details: Jackson et al., J Am Heart Assoc 2018; cited from earlier work
AVP receptor V2 = assay: Western immunoblotting, kidney V2 vasopressin receptor; type: in vivo, rat; details: aged Fisher 344 rats; 8-AG 5 mg kg/day via drinking water, 1 month
Protocol: Western immunoblotting and transmission electron microscopy: Following these testing paradigms, rats were deeply anesthetized, bladders were removed, and one half of each bladder (using the smooth muscle layer) was homogenized using Lysing Matrix D in a FASTPREP-24™ instrument (MP BIOMEDICALS™, Solon, Ohio) in HBSS (5 mM KCl, 0.3 mM KH2PO4, 138 mM NaCl, 4 mM NaHO3, 0.3 mM Na2HCO3, 0.3 mM Na2HPO4, 5.6 mM glucose and 10 mM Hepes, pH 7.4) containing complete protease inhibitor cocktail (1 tablet/10 ml, ROCHE™, Indianapolis, Ind.) and phosphatase inhibitor cocktail (SIGMA®, 1:100). Whole rat kidney was also homogenized using the same procedure. After centrifugation (13000 rpm; 15 min at 4° C.), the membrane protein fraction was prepared by suspending the membrane pellets in lysis buffer containing 0.3 M NaCl, 50 mM Tris-HCl (pH 7.6), 0.5% Triton X-100, and the same concentration of protease inhibitors as above. […] The protein concentrations of the combined supernatants were determined using the PIERCE™ BCA protein assay (THERMO SCIENTIFIC™, Rockford, Ill.). […] As a loading control, total protein per sample was determined using BIO-RAD™ Stain Free SDS-PAGE gel technology. UV-activated protein fluorescence was imaged on a CHEMIDOC™ MP (BIO-RAD™). […] The volume (intensity) of each protein species was determined and normalized to total protein using Image Lab software (BIO-RAD™).

CYP-treated rats = assay: Images of intact bladders in CYP cystitis model (inflammation and bleeding); type: in vivo, rat; details: CYP (75 mg/kg i.p.) female Sprague Dawley rats; oral 8-AG 5 mg/kg/day starting one week prior to CYP
Protocol: (§1) Animals: Female Sprague Dawley rats were employed in this example (Charles River; Wilmington, Mass.). Three groups of animals were included. Group 1 received an i.p. injection of saline and was used as a control; groups 2 and 3 received an i.p. injection of cyclophosphamide (CYP, SIGMA-ALDRICH®, St Louis, Mo., day 0, 3, 6, sacrifice day 8, 75 mg/kg, i.p.) with group 3 treated with oral 8-AG (5 mg/kg/day; starting one week prior to CYP). CYP induced bladder inflammation and is a well-established pre-clinical model for BPS/IC.

MCP-1 = assay: RT-qPCR of bladder MCP-1 mRNA in CYP cystitis model; type: in vivo, rat; details: CYP (75 mg/kg i.p.) female Sprague Dawley rats; oral 8-AG 5 mg/kg/day starting one week prior to CYP
Protocol: as §1
RT-qPCR: Total RNA was isolated from bladders using TRIZOL® Reagent (THERMO FISHER SCIENTIFIC®; Waltham, Mass.) according to the manufacturer's instructions. The cDNA was synthesized using ISCRIPT™ cDNA synthesis kit (BIO-RAD®). qPCR analysis was performed using Power SYBR™ Green PCR Master Mix (THERMO FISHER SCIENTIFIC®) in the APPLIED BIOSYSTEMS® QUANTSTUDIO™ 3 Real-Time PCR System (THERMO FISHER SCIENTIFIC®). The primers used were as follows: for IL-1beta, 5′-[…]-3′ (forward; SEQ ID NO: 1) and 5′-[…]-3′ (reverse; SEQ ID NO: 2); for MCP-1, 5′-[…]-3′ (forward; SEQ ID NO: 3) and 5′-[…]-3′ (reverse; SEQ ID NO: 4); for β-actin, 5′-ACTCTTCCAGCCTTCCTTC-3′ (forward; SEQ ID NO: 5) and 5′-[…]-3′ (reverse; SEQ ID NO: 6). The threshold cycle (Ct) for target was subtracted from Ct for β-actin to give ΔCt. Results are expressed as 2AC.

Sequence of PNPase (P00491 whole entry): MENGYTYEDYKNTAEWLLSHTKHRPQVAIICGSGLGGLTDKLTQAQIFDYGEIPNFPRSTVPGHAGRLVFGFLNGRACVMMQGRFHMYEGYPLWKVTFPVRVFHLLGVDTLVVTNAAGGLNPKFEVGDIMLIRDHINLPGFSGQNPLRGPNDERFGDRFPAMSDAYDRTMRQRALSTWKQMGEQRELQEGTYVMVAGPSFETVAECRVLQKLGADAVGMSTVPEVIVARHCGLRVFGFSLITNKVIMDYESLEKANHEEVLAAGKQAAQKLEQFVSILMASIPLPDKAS

In the case of `Nc1nc2[nH]c(N)nc2c(=O)[nH]1` [8-AG, 8-Aminoguanine], the diuresis [1] is given as “induce”, the glucosuria [1] is given as “induce” and the natriuresis [1] is given as “induce”. For the same compound, the potassium excretion [1] was “reduce”, the “hydroxyproline in detrusor smooth muscle” value (hydroxyproline) was “levels similar to the younger state; also recorded: restored these biomarkers to that of a younger state” and the “PNPase inhibition (mechanism of diuresis, natriuresis, glucosuria)” value (PNPase) was “inhibiting”. For the same compound, the “V2 vasopressin receptor in kidney” value (AVP receptor V2) was “restored to a younger state; also recorded: restored to levels similar to the younger state”, the “bladder inflammation and bleeding (images of intact bladders)” value (CYP-treated rats) was “nearly abolished” and the “MCP-1 mRNA expression in bladder” value (MCP-1) was “suppressed; also recorded: near the detection limit; also recorded: nearly abolished”.
